Experimental data from patent US7335505B2, “Materials and methods relating to protein aggregation in neurodegenerative disease” (Wista Laboratories Ltd., priority 2001, dated 2008).

Tests used:
[1] = molecular target: T1, full-length human tau (T40) / 12 kD PHF-core tau fragment (Homo sapiens, UniProt P10636); details: for inhibition of 12 kD:T40 ratio (in words): IPTG 0-50 μM, thionine and tolonium chloride with 200 μM DTT/ascorbate, chlorpromazine and tacrine without reducing agents
[2] = Extent of reduction of diaminophenothiazines by DTT or ascorbic acid; type: physicochemical; details: approx. 500:1 DTT excess, at 120 minutes
[3] = molecular target: T1, full-length human tau (T40) / 12 kD PHF-core tau fragment; assay: cell-based
[4] = in vivo; cited from earlier work

T1 sequence (P10636 1-441 isoform P10636-8): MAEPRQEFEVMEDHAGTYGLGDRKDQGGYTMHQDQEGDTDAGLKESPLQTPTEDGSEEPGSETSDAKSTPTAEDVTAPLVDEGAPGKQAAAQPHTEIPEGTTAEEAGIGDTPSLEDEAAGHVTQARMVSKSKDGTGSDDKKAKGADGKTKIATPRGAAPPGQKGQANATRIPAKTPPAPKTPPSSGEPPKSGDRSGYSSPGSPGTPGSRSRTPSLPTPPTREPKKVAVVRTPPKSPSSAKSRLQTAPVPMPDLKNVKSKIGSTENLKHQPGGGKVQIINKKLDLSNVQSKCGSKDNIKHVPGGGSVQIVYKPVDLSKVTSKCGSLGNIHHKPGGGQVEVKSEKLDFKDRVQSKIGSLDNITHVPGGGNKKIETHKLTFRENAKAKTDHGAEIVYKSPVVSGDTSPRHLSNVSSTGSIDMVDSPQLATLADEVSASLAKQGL

| Compound | extent of reduction [2] | Ki [3] [nM] | inhibition of 12 kD:T40 ratio (in words) [1] | also measured |
| --- | --- | --- | --- | --- |
| Cc1cc(N(C)C)cc2[s+]c3cc(N(C)C)cc(C)c3nc12 [DMMB, 1,9-Dimethylmethylene Blue] | relatively little reduced | – | – | effect on tau degradation products within the cell ([1]; 1 μM DMMB, with and without IPTG induction): effectively abolished all degradation products; IC50 ([1]; read-out: cellular B50 value, base-line expression of the 12/14 kD species, concentration reducing 12 kD production to 50%): ~100 nM |
| CN(C)CCCN1c2ccccc2Sc2ccc(Cl)cc21 [chlorpromazine] | – | 2120 | non-inhibitory | – |
| Nc1c2c(nc3ccccc13)CCCC2 [tacrine] | – | 802 | non-inhibitory | – |
| Cc1cc2nc3ccc(N(C)C)cc3[s+]c2cc1N [tolonium chloride] | – | – | – | half live in blood [4]: approximately 100 minutes |
| thionine | completely reduced | – | essentially identical inhibition | toxicity to cells of the assay [1]: toxic; conversion of induced T40 into the 12 kD fragment ([1]; 2 μM thionine (reduced), increasing IPTG): not converted into the 12 kD fragment |
